Values after ≈ are worked out from the molar mass of the structure shown. Where a SMILES comes first, the peptide text is derived from it.
Key:
[1] = Therapeutic index, ratio of MHC for human RBC to geometric mean of peptide MIC for Streptococcus agalactiae H92; format: toxicity; conditions: human red blood cells (RBC), read-out: TI
[2] = Therapeutic index, ratio of MHC for human RBC to geometric mean of peptide MIC for Staphylococcus epidermidis ATCC 12228; format: toxicity; conditions: human red blood cells (RBC), read-out: TI
[3] = Therapeutic index, ratio of MHC for human RBC to geometric mean of peptide MIC for methicillin-resistant Staphylococcus aureus 43300; format: toxicity; conditions: human red blood cells (RBC), read-out: TI
[4] = Therapeutic index, ratio of MHC for human RBC to geometric mean of peptide MIC for Enterococcus faecalis ATCC 29212; format: toxicity; conditions: human red blood cells (RBC), read-out: TI
[5] = Therapeutic index, ratio of MHC for human RBC to geometric mean of peptide MIC for Staphylococcus aureus ATCC 29213; format: toxicity; conditions: human red blood cells (RBC), read-out: TI
[6] = Therapeutic index, ratio of MHC for human RBC to geometric mean of peptide MIC for Staphylococcus aureus 11011; format: toxicity; conditions: human red blood cells (RBC), read-out: TI
[7] = Therapeutic index, ratio of MHC for human RBC to geometric mean of peptide MIC for Salmonella pullorum 7913; format: toxicity; conditions: human red blood cells (RBC), read-out: TI
[8] = Therapeutic index, ratio of MHC for human RBC to geometric mean of peptide MIC for Salmonella typhimurium 7731; format: toxicity; conditions: human red blood cells (RBC), read-out: TI
[9] = Therapeutic index, ratio of MHC for human RBC to geometric mean of peptide MIC for Salmonella choleraesuis 503; format: toxicity; conditions: human red blood cells (RBC), read-out: TI
[10] = Therapeutic index, ratio of MHC for human RBC to geometric mean of peptide MIC for Escherichia coli UB1005; format: toxicity; conditions: human red blood cells (RBC), read-out: TI
[11] = Therapeutic index, ratio of MHC for human RBC to geometric mean of peptide MIC for Salmonella typhimurium 14028; format: toxicity; conditions: human red blood cells (RBC), read-out: TI
[12] = Therapeutic index, ratio of MHC for human RBC to geometric mean of peptide MIC for Escherichia coli ATCC 25922; format: toxicity; conditions: human red blood cells (RBC), read-out: TI
Staphylococcus aureus [13] = assay: Antibacterial activity against Staphylococcus aureus ATCC 29213 after 18 to 24 hrs by CLSI-based broth microdilution method; format: functional; conditions: time hrs 18-24
Staphylococcus aureus [14] = assay: Antibacterial activity against Staphylococcus aureus 11011 after 18 to 24 hrs by CLSI-based broth microdilution method; format: functional; conditions: time hrs 18-24
Escherichia coli [15] = assay: Antibacterial activity against Escherichia coli ATCC 25922 after 18 to 24 hrs by CLSI-based broth microdilution method; format: functional; conditions: time hrs 18-24
Escherichia coli [16] = assay: Antibacterial activity against Escherichia coli UB1005 after 18 to 24 hrs by CLSI-based broth microdilution method; format: functional; conditions: time hrs 18-24
Salmonella typhimurium [17] = assay: Antibacterial activity against Salmonella typhimurium 14028 after 18 to 24 hrs by CLSI-based broth microdilution method; format: functional, Salmonella enterica subsp. enterica serovar Typhimurium; conditions: Salmonella enterica, time hrs 18-24
Salmonella typhimurium [18] = assay: Antibacterial activity against Salmonella typhimurium 7731 after 18 to 24 hrs by CLSI-based broth microdilution method; format: functional, Salmonella enterica subsp. enterica serovar Typhimurium; conditions: Salmonella enterica, time hrs 18-24
[19] = Antibacterial activity against Salmonella pullorum 7913 after 18 to 24 hrs by CLSI-based broth microdilution method; format: functional, Salmonella enterica subsp. enterica serovar Pullorum; conditions: Salmonella enterica, time hrs 18-24
Salmonella enterica = assay: Antibacterial activity against Salmonella choleraesuis 503 after 18 to 24 hrs by CLSI-based broth microdilution method; format: functional; conditions: time hrs 18-24
[20] = tested on: Staphylococcus epidermidis; assay: Antibacterial activity against Staphylococcus epidermidis ATCC 12228 after 18 to 24 hrs by CLSI-based broth microdilution method; format: functional; conditions: time hrs 18-24
Enterococcus faecalis = assay: Antibacterial activity against Enterococcus faecalis ATCC 29212 after 18 to 24 hrs by CLSI-based broth microdilution method; format: functional; conditions: time hrs 18-24
Staphylococcus aureus [21] = assay: Antibacterial activity against methicillin-resistant Staphylococcus aureus 43300 after 18 to 24 hrs by CLSI-based broth microdilution method; format: functional; conditions: time hrs 18-24
Streptococcus agalactiae = assay: Antibacterial activity against Streptococcus agalactiae H92 after 18 to 24 hrs by CLSI-based broth microdilution method; format: functional; conditions: time hrs 18-24
Erythrocyte = assay: Hemolytic activity in human RBC assessed as hemolysis; format: ADME, cell-based
[22] = Hemolytic activity in human RBC assessed as hemolysis at 1 to 128 uM relative to control; format: ADME, cell-based, Erythrocyte; conditions: human red blood cells (RBC), dose 1-128 µM, read-out: Activity
[23] = Cytotoxicity against mouse RAW264.7 cells assessed as cell viability at 128 uM by MTT assay relative to control; format: cell-based; conditions: read-out: Activity
[24] = Cytotoxicity against HEK-293T cells assessed as cell viability at 128 uM by MTT assay relative to control; format: cell-based; conditions: human, read-out: Activity

Row | SMILES | selectivity ratio [1] | selectivity ratio [2] | selectivity ratio [3] | selectivity ratio [4] | selectivity ratio [5] | selectivity ratio [6] | selectivity ratio [7] | selectivity ratio [8] | selectivity ratio [9] | selectivity ratio [10] | selectivity ratio [11] | selectivity ratio [12] | MIC (Staphylococcus aureus [13]) | MIC (Staphylococcus aureus [14]) | MIC (Escherichia coli [15]) | MIC (Escherichia coli [16]) | MIC (Salmonella typhimurium [17]) | MIC (Salmonella typhimurium [18]) | MIC [19] | MIC (Salmonella enterica) | further results
1 | CC[C@H](C)[C@H](N)C(=O)N[C@H](C(=O)N[C@@H](CS)C(=O)N[C@@H](CCCNC(=N)N)C(=O)N[C@@H](CCCCN)C(=O)N1CCC[C@H]1C(=O)N[C@H](C(=O)N[C@H](C(=O)N[C@@H](CS)C(=O)N[C@@H](CCCNC(=N)N)C(=O)N[C@@H](CCCCN)C(=O)N1CCC[C@H]1C(=O)N[C@H](C(=O)N[C@H](C(=O)N[C@@H](CS)C(=O)N[C@@H](CCCNC(=N)N)C(=O)N[C@@H](CCCCN)C(=O)N1CCC[C@H]1C(=O)N[C@H](C(=O)N[C@H](C(=O)N[C@@H](CS)C(=O)N[C@@H](CCCNC(=N)N)C(=O)N[C@@H](CCCCN)C(=O)N1CCC[C@H]1C(=O)N[C@H](C(=O)N[C@H](C(=O)N[C@@H](CS)C(=O)N[C@@H](CCCNC(=N)N)C(=O)N[C@@H](CCCCN)C(=O)N1CCC[C@H]1C(=O)N[C@H](C(=O)N[C@H](C(N)=O)[C@@H](C)CC)[C@@H](C)CC)[C@@H](C)CC)[C@@H](C)CC)[C@@H](C)CC)[C@@H](C)CC)[C@@H](C)CC)[C@@H](C)CC)[C@@H](C)CC)[C@@H](C)CC)[C@@H](C)CC (H-IICRKPIICRKPIICRKPIICRKPIICRKPII-NH2) | 2 | 2 | 2 | 2 | 2 | 2 | 40.3 | 40.3 | 40.3 | 40.3 | 40.3 | 40.3 | > 64 µM | > 64 µM | 2 µM (≈ 7.6 µg/mL) | 2 µM (≈ 7.6 µg/mL) | 4 µM (≈ 15.2 µg/mL) | 2 µM (≈ 7.6 µg/mL) | 8 µM (≈ 30.4 µg/mL) | 4 µM (≈ 15.2 µg/mL) | MIC [20]: 64 µM (≈ 243 µg/mL); MIC (Enterococcus faecalis): > 64 µM; MIC (Staphylococcus aureus [21]): 64 µM (≈ 243 µg/mL); MIC (Streptococcus agalactiae): > 64 µM; MHC (Erythrocyte): > 128 µM; hemolysis at up to 128 µM [22]: < 5%; viability at 128 µM [23]: > 90%; viability at 128 µM [24]: > 90%
2 | CC[C@H](C)[C@H](N)C(=O)N[C@@H](CS)C(=O)N[C@@H](CCCNC(=N)N)C(=O)N[C@@H](CCCCN)C(=O)N1CCC[C@H]1C(=O)N[C@H](C(=O)N[C@H](C(=O)N[C@@H](CS)C(=O)N[C@@H](CCCNC(=N)N)C(=O)N[C@@H](CCCCN)C(=O)N1CCC[C@H]1C(=O)N[C@H](C(=O)N[C@H](C(=O)N[C@@H](CS)C(=O)N[C@@H](CCCNC(=N)N)C(=O)N[C@@H](CCCCN)C(=O)N1CCC[C@H]1C(=O)N[C@H](C(=O)N[C@H](C(=O)N[C@@H](CS)C(=O)N[C@@H](CCCNC(=N)N)C(=O)N[C@@H](CCCCN)C(=O)N1CCC[C@H]1C(=O)N[C@H](C(=O)N[C@H](C(=O)N[C@@H](CS)C(=O)N[C@@H](CCCNC(=N)N)C(=O)N[C@@H](CCCCN)C(=O)N1CCC[C@H]1C(=O)N[C@H](C(N)=O)[C@@H](C)CC)[C@@H](C)CC)[C@@H](C)CC)[C@@H](C)CC)[C@@H](C)CC)[C@@H](C)CC)[C@@H](C)CC)[C@@H](C)CC)[C@@H](C)CC (H-ICRKPIICRKPIICRKPIICRKPIICRKPI-NH2) | 2 | 2 | 2 | 2 | 2 | 2 | 28.5 | 28.5 | 28.5 | 28.5 | 28.5 | 28.5 | > 64 µM | > 64 µM | 4 µM (≈ 14.3 µg/mL) | 2 µM (≈ 7.14 µg/mL) | 4 µM (≈ 14.3 µg/mL) | 4 µM (≈ 14.3 µg/mL) | 8 µM (≈ 28.6 µg/mL) | 8 µM (≈ 28.6 µg/mL) | MIC [20]: > 64 µM; MIC (Enterococcus faecalis): > 64 µM; MIC (Staphylococcus aureus [21]): > 64 µM; MIC (Streptococcus agalactiae): > 64 µM; MHC (Erythrocyte): > 128 µM; hemolysis at up to 128 µM [22]: < 5%; viability at 128 µM [23]: > 90%; viability at 128 µM [24]: > 90%
3 | CC[C@H](C)[C@H](N)C(=O)N[C@@H](CS)C(=O)N[C@@H](CCCNC(=N)N)C(=O)N[C@@H](CCCCN)C(=O)N1CCC[C@H]1C(=O)N[C@H](C(=O)N[C@H](C(=O)N[C@@H](CS)C(=O)N[C@@H](CCCNC(=N)N)C(=O)N[C@@H](CCCCN)C(=O)N1CCC[C@H]1C(=O)N[C@H](C(N)=O)[C@@H](C)CC)[C@@H](C)CC)[C@@H](C)CC (H-ICRKPIICRKPI-NH2) | 2 | 2 | 2 | 2 | 2 | 2 | 2 | 2 | 2 | 2 | 2 | 2 | > 64 µM | > 64 µM | 64 µM (≈ 92.1 µg/mL) | > 64 µM | > 64 µM | > 64 µM | > 64 µM | > 64 µM | MIC [20]: > 64 µM; MIC (Enterococcus faecalis): > 64 µM; MIC (Staphylococcus aureus [21]): > 64 µM; MIC (Streptococcus agalactiae): > 64 µM; MHC (Erythrocyte): > 128 µM; hemolysis at up to 128 µM [22]: < 5%; viability at 128 µM [23]: > 90%; viability at 128 µM [24]: > 90%

Reference: ChEMBL document CHEMBL4665709, “Rational Avoidance of Protease Cleavage Sites and Symmetrical End-Tagging Significantly Enhances the Stability and Therapeutic Potential of Antimicrobial Peptides” (J Med Chem, 2020)
